Reference: patent publication US11324737B1, “Modulating expression level of a gene encoding a heat shock protein by treating a human subject with a nitroxide” (priority 2021, dated 2022)

Columns and labels:
[1] = system: HSP90; assay: Effects of Tempol on gene expression in cardiac tissue of mice, chip-based microarray; type: in vivo
Experimental: To assess the effects of Tempol on gene expression, Tempol was administered to experimental mice at a dose of 5 mg/g of food from 14 months to 31 months after birth. Mice receiving the same food without the addition of Tempol were used as a negative control. At the age of 31 months, the experimental animals were sacrificed and the hearts were surgically removed. The expression of a broad spectrum of genes in the cardiac tissue was assessed using chip-based microarray technology. Such chips are well known in the art and are widely used to assess gene expression.

[2] = system: HSP90; assay: Treating a human subject with Tempol, serum level of HSP90 following treatment; type: in vivo; details: 2000 mg per day for 180 days
Experimental: (§1) A 70-kilogram human subject over the age of 65 is identified as having, or known to have, or suspected of having an increased expression level of HSP90. The human subject is administered a dose of 2000 mg of Tempol (or another nitroxide antioxidant) per day for 180 days. This may be administered in a single dose, or may be administered as a number of smaller doses over a 24-hour period: for example, four 500-mg doses at […]. Following treatment, the serum level of HSP90, is decreased.
as §1, with “subject” for “subject over the age of 65”
as §1, with “65 and having a cardiovascular disease” for “65”, “for an increased expression level of HSP90. Or a 70-kilogram human subject over the age of 65 is” for “as having, or”, “have a cardiovascular disease and/or” for “have, or suspected of having an”
as §1, with “at risk” for “over the age”, “developing colorectal cancer” for “65”, “for increased expression level of HSP90. Or a 70-kilogram human subject is” for “as having, or”, “be at risk” for “have, or suspected”, “developing colorectal cancer and/or have” for “having an”, “decreased. […]” for “decreased.”
A 70-kilogram human subject having an infection (e.g., a bacterial, fungal, or viral infection) is identified for increased expression level of HSP90. Or a 70-kilogram human subject is known to have an infection and/or have increased expression level of HSP90. The human subject is administered a dose of 2000 mg of Tempol (or another nitroxide antioxidant) per day for 180 days. This may be administered in a single dose, or may be administered as a number of smaller doses over a 24-hour period: for example, four 500-mg doses at […]. Following treatment, the serum level of HSP90, is decreased.

CC1(C)CC(O)CC(C)(C)N1[O] [Tempol, 4-hydroxy-2,2,6,6-tetramethylpiperidine-1-oxyl]
Fold change (expression of HSP90 in cardiac tissue after Tempol administration) ([1]; Tempol 5 mg/g of food from 14 months to 31 months after birth, vs same food without Tempol, cardiac tissue at 31 months): −2.4 | HSP90 expression in cardiac tissue ([1]; Tempol 5 mg/g of food from 14 to 31 months after birth, cardiac tissue, result in words): statistically significant decrease in expression | serum level of HSP90 following treatment ([2]; Example 2: 70-kilogram human subject over the age of 65 with increased expression level of HSP90): decreased | serum level of HSP90 following treatment ([2]; Example 3: 70-kilogram human subject with increased expression level of HSP90): decreased | serum level of HSP90 following treatment ([2]; Example 4: 70-kilogram human subject over the age of 65 having a cardiovascular disease): decreased | serum level of HSP90 following treatment ([2]; Example 5: 70-kilogram human subject at risk of developing colorectal cancer): decreased | serum level of HSP90 following treatment ([2]; Example 6: 70-kilogram human subject at risk of developing an autoimmune disease (e.g., rheumatoid arthritis)): decreased | serum level of HSP90 following treatment ([2]; Example 7: 70-kilogram human subject at risk of developing a condition due to aging): decreased | serum level of HSP90 following treatment ([2]; Example 8: 70-kilogram human subject at risk of developing a neurodegenerative disease (e.g., Parkinson's Disease)): decreased | serum level of HSP90 following treatment ([2]; Example 9: 70-kilogram human subject having an infection (bacterial, fungal, or viral)): decreased
